US20140066365A1, “USE OF CALIXARENES ASSOCIATED WITH AN ANTIBIOTIC IN THE TREATMENT OF BACTERIAL INFECTIONS” (priority 2011, published 2014)
Converted amounts (≈) assume the structure as drawn. Like-named read-outs stand apart in the source and are kept apart here.

Tests used:
Type in all cases: cell-based
[1] = tested on: ESBL-producing strain of Escherichia coli, having an associated resistance to the aminoglycosides (EcR3); experiment: MIC of the compounds used alone, microdilution in a liquid medium (CLSI); conditions: Escherichia coli, antibiotic alone (second value of cell), read-out: Initial MICs
Source text: (§1) The MICs of the antibiotics were previously defined for each strain, by the method of microdilution in a liquid medium (CLSI (Clinical and Laboratory Standards Institute), 2003).

[2] = tested on: Escherichia coli strain ATCC 25922 (wild type); experiment: as above; conditions: Escherichia coli, ATCC25922; antibiotic alone (second value of cell); E. coli ATCC 25922; read-out: Initial MICs
Source text: as §1

[3] = tested on: Pseudomonas aeruginosa strain ATCC 27853 (wild type); experiment: as above; conditions: Pseudomonas aeruginosa, ATCC27853; antibiotic alone (second value of cell); P. aeruginosa ATCC 27853; read-out: MIC
Source text: as §1

[4] = tested on: Pseudomonas aeruginosa strain PaR3; experiment: as above; conditions: Pseudomonas aeruginosa, antibiotic alone (second value of cell), read-out: MIC
Source text: as §1

[5] = tested on: cephalosporinase-hyperproducing strain of Escherichia coli (EcR2); experiment: as above; conditions: Escherichia coli, antibiotic alone (second value of cell), read-out: Initial MICs
Source text: as §1

[6] = tested on: mucoid strain of Pseudomonas aeruginosa PaR5; experiment: as above; conditions: Pseudomonas aeruginosa, antibiotic alone (second value of cell), read-out: MIC
Source text: as §1

[7] = tested on: penicillinase-producing strain of Escherichia coli without associated resistance (EcR1); experiment: as above; conditions: Escherichia coli, antibiotic alone (second value of cell), read-out: Initial MICs
Source text: as §1

[8] = tested on: Pseudomonas aeruginosa strain PaR2; experiment: microbe, parasite or virus in culture; conditions: Pseudomonas aeruginosa, antibiotic alone (second value of cell), read-out: MIC
Source text: as §1

[9] = tested on: EcR1: Penicillinase-Producing Escherichia coli without Associated Resistance; experiment: Antibiogram, MIC by the VITEK 2 system; conditions: for MIC: Escherichia coli
Protocol: (§2) 5.1 EcR1: Penicillinase-Producing Escherichia coli without Associated Resistance The bacterial and antibiogramidentification is carried out by the VITEK 2 system (bioMérieux) and by the disk diffusion technique.

[10] = tested on: EcR1: Penicillinase-Producing Escherichia coli without Associated Resistance; experiment: Antibiogram by the disk diffusion technique; conditions: Table A1
Protocol: as §2

[11] = tested on: EcR2: Cephalosporinase-Hyperproducing Strain of Escherichia coli; experiment: Antibiogram by the disk diffusion technique
Protocol: The bacterial and antibiogramidentification is carried out by the VITEK 1 system (bioMérieux) and by the disk diffusion technique

[12] = tested on: EcR3: ESBL-Producing Escherichia coli; experiment: Antibiogram by the disk diffusion technique
Protocol: The bacterial and antibiogramidentification is carried out by the VITEK 2 system (bioMerieux) and by the disk diffusion technique

[13] = tested on: PaR3: Pseudomonas aeruginosa; experiment: Antibiogram, MIC by the VITEK 2 system
Protocol: (§3) The bacterial and antibiogramidentification is carried out by the VITEK 2 system (bioMérieux)

[14] = tested on: SaR1: Meticillin-Resistant Staphylococcus aureus without Associated Resistance; experiment: Antibiogram, MIC by the VITEK 2 system; conditions: SaR1
Protocol: as §3

[15] = tested on: PaR5: Pseudomonas aeruginosa; experiment: Antibiogram by the disk diffusion technique
Protocol: (§4) The bacterial and antibiogramidentification is carried out by the VITEK 2 system (bioMérieux) and by the disk diffusion technique

[16] = tested on: SaR3: Meticillin-Resistant Staphylococcus aureus; experiment: Antibiogram by the disk diffusion technique
Protocol: as §4

[17] = tested on: SaR4: Meticillin-Resistant Staphylococcus aureus; experiment: Antibiogram by the disk diffusion technique
Protocol: as §4

[18] = tested on: PaR2: Pseudomonas aeruginosa
Protocol: as §4

[19] = tested on: Escherichia coli, Staphylococcus aureus and Pseudomonas aeruginosa strains; experiment: Chessboard technique, summary statements over all strains and combinations tested; conditions: strain not stated
Source text: 1.3. Procedure: Chessboard Technique
The same procedure is followed for the Cx1. […] Thus 64 ATB/Cx1 combinations are obtained.
The FIC (Fractional Inhibitory Concentration Index) value is defined by the following formula: […]
When FIC≦0.5, there is a synergistic effect between antibiotic A and antibiotic B.
When 0.5<FIC≦1, there is an additive effect between antibiotic A and antibiotic B.
When 1<FIC≦4, there is an indifferent effect between antibiotic A and antibiotic B.
When FIC>4, there is an antagonistic effect between antibiotic A and antibiotic B.
For each strain and each antibiotic/Cx1 combination, the experiments were repeated a minimum of 3 times.

[20] = tested on: SaR1: Meticillin-Resistant Staphylococcus aureus without Associated Resistance; experiment: Antibiogram, inhibition diameter (Table D1)
Protocol: as §3

MIC [1]: 4 µg/mL
MIC [2]: 0.25 µg/mL
MIC [3]: 0.5 µg/mL
MIC [4]: 64 µg/mL
MIC [5]: 4 µg/mL
MIC [6]: 1 µg/mL
MIC [7]: 0.25 µg/mL
MIC [8]: 1 µg/mL (≈ 2.14 µM)
MIC ([9]; EcR1, Table A2, read-out: MIC mg/L (diameter in mm)): ≤ 1 mg/L
MIC ([9]; EcR1, VITEK 2, Table A1, read-out: MIC): ≤ 1 mg/L
MIC ([13]; Pseudomonas aeruginosa, Table H2, read-out: MIC): ≥ 16 µg/mL
MIC ([13]; Table H1): ≧16
MIC mg/L ([14]; Table D2): ≦1 mg/L
MIC ([14]; Staphylococcus aureus, Table D1, read-out: MIC): ≤ 1 µg/mL
Compound: NC[C@H]1O[C@H](O[C@H]2[C@H](O)[C@@H](O[C@H]3O[C@H](CO)[C@@H](O)[C@H](N)[C@H]3O)[C@H](N)C[C@@H]2N)[C@H](N)C[C@@H]1O [Tobramycin]
CA-SFM Interpretation ([9]; EcR1, MIC against Cc CA-SFM 2011): Susceptible
CLSI Interpretation ([9]; EcR1, MIC against Cc CLSI 2011): Susceptible
EUCAST Interpretation ([9]; EcR1, MIC against Cc EUCAST 2011): Susceptible
Results ([9]; EcR1, interpretation of the MIC, Table A1): Susceptible
Diameter ([10]; EcR1, disk diffusion): 19 mm
Results ([10]; EcR1, interpretation of the diameter against Dmin Dmax): Susceptible
Diameter ([11]; EcR2, disk diffusion, Table B1): 10
Results ([11]; EcR2, rows that print a diameter, Table B1): Resistant
Diameter ([11]; EcR2, Table B2, diameters): 10 mm
CA-SFM Interpretation ([11]; EcR2, from diameter, CA-SFM 2011): Resistant
CLSI Interpretation ([11]; EcR2, from diameter, CLSI 2011): Resistant
EUCAST Interpretation ([11]; EcR2, from diameter, EUCAST 2011): Resistant
CA-SFM Interpretation ([12]; Cd CA-SFM 2011): Resistant
CLSI Interpretation ([12]; Cd CLSI 2011): Resistant
EUCAST Interpretation ([12]; Cd EUCAST 2011): Resistant
Diameter ([12]; Table C1): 6 mm
Results ([12]; Table C1, against Dmin Dmax): Resistant
diameter in mm ([12]; Table C2): 6 mm
CA-SFM Interpretation ([13]; Cc CA-SFM 2011): Resistant
CLSI Interpretation ([13]; Cc CLSI 2011): Resistant
EUCAST Interpretation ([13]; Cc EUCAST 2011): Resistant
Results ([13]; Table H1): Resistant
CA-SFM Interpretation ([14]; Cc CA-SFM 2011): Susceptible
CLSI Interpretation ([14]; Cc CLSI 2011): Susceptible
EUCAST Interpretation ([14]; Cc EUCAST 2011): Susceptible
Results ([14]; Table D1, from MIC): Susceptible
Diameter ([15]; PaR5, Table I1): 28 mm
Results ([15]; PaR5, Table I1, against Dmin-Dmax): Susceptible
diameter in mm ([15]; disk diffusion inhibition diameter, strain PaR5): 28 mm
CA-SFM Interpretation ([15]; disk diffusion, PaR5, versus critical diameter CA-SFM 2011): Susceptible
CLSI Interpretation ([15]; disk diffusion, PaR5, versus critical diameter CLSI 2011): Susceptible
EUCAST Interpretation ([15]; disk diffusion, PaR5, versus critical diameter EUCAST 2011, for ** antibiotics the disk load differs and the EUCAST interpretation is not applicable): Susceptible
CA-SFM Interpretation ([16]; Cd CA-SFM 2011): Resistant
CLSI Interpretation ([16]; Cd CLSI 2011): Resistant
EUCAST Interpretation ([16]; Cd EUCAST 2011): Resistant
Diameter ([16]; Table E1): 6 mm
Results ([16]; Table E1, against Dmin Dmax): Resistant
diameter in mm ([16]; Table E2): 6 mm
Diameter ([17]; Table F1): 6
Results ([17]; Table F1, rows with a diameter): Resistant
Diameter ([17]; Table F2, diameters): 6 mm
CA-SFM Interpretation ([17]; from diameter, CA-SFM 2011): Resistant
CLSI Interpretation ([17]; from diameter, CLSI 2011): Resistant
EUCAST Interpretation ([17]; from diameter, EUCAST 2011): Resistant
CA-SFM Interpretation ([18]; Cd CA-SFM 2011): Susceptible
CLSI Interpretation ([18]; Cd CLSI 2011): Susceptible
EUCAST Interpretation ([18]; Cd EUCAST 2011): Susceptible
Diameter ([18]; Table G1): 24 mm
Results ([18]; Table G1, against Dmin-Dmax): Susceptible
diameter in mm ([18]; Table G2): 24 mm
interaction between the antibiotic and Cx1 [19]: synergism
Diameter [20]: 22 mm
Results ([20]; from diameter, against Dmin Dmax): Susceptible
